One assay concerns the target T1, KRAS(G12D)/SOS1 (Homo sapiens, UniProt P01116, G12D).
T1 construct: purchased Cisbio 63ADK000CB17PEH
In words: KRAS(G12D)/SOS1 homogeneous time-resolved fluorescence (HTRF) assay. Format: binding. As to conditions: absence of GTP; 4° C., 3 hr. The method, then: Binding of test compounds to KRAS(G12D) target protein, which in turn blocks KRAS(G12D) interaction with the SOS1 protein, was measured in the absences of GTP by homogeneous time-resolved fluorescence using the KRAS-G12D/SOS1 Binding Assay Kit (Cisbio, 63ADK000CB17PEH), following the manufacturer's instructions, except as noted. 3-fold serial dilutions of each test compound were prepared ranging from 20 µM to 1.02 nM. The test compound was mixed and incubated with reaction components, incubated in a sealed plate at 4° C. for 3 hr and fluorescence was measured using a PerkinElmer Envision plate reader. The KRAS(G12D)-SOS1 IC50 values (the concentration of 50% of the maximal inhibition) were calculated using GraphPad Prism 7 software.
In general terms: TR-FRET usually uses a lanthanide donor and a delayed reading to cut background.

Assay [1] relates to AGS gastric carcinoma cells [heterozygous G12D]. In words: Cancer cell line proliferation (CellTiter-Glo), AGS. Format: cell-based. As to conditions: Homo sapiens, 72 hr treatment, read-out: AGS CTG (EC50). The method, then: (§1) The following cancer cell lines were employed: AGS gastric carcinoma [heterozygous G12D](ATCC, CRL-1739); A-427 lung carcinoma [heterozygous G12D](ATCC, HTB-53); ASPC1 pancreatic adenocarcinoma [homozygous G12D](ATCC, CRL-1682) and SW1990 pancreatic adenocarcinoma [homozygous G12D](ATCC CRL-2172). Cell lines were cultured essentially according to ATCC recommendations.
(§2) AGS, A-427, ASPC1, SW1990, and GP2D cells were plated in 96-well tissue culture plates at 4,000 cells/well and incubated at 37° C./5% CO2 for 72 hr in 100 μl of media. 3-fold serial dilutions of each test compound were prepared ranging from 20 μM to 1.02 nM. Each cell line was then treated with test compounds at various concentrations with a final concentration of 0.5% DMSO/well, and then incubated at 37° C./5% CO2 for 72 hr. 100 µl of CellTiter-Glo® Reagent (Promega Corporation, Madison, WI) was added to each well and processed according manufacturer's protocol. Results were analyzed and EC50 values were calculated in GraphPad 7 software.

Assay [2] concerns A-427 lung carcinoma cells [heterozygous G12D]. In words: Cancer cell line proliferation (CellTiter-Glo), A-427. Format: cell-based. The settings on record: Homo sapiens, A-427 cells, 72 hr treatment, read-out: A427 CTG (EC50). The method, then: as §1, §2

T1 sequence (P01116 1-188 isoform P01116-2 G12D): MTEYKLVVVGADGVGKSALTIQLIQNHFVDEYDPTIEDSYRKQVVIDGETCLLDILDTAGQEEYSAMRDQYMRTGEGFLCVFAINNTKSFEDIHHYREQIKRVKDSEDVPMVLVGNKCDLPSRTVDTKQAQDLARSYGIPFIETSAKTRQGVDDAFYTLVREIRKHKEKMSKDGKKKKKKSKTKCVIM

In general, IC50 refers to the concentration that gives 50% inhibition. In the case of `C#Cc1cccc2cccc(-c3ncc4c(N5CC6CCC(C5)N6)nc(OCC5(CN6CCN(C(=O)C7CCN(Cc8ccc9c(c8)CN(C(=O)c8cc(C(C)C)c(O)cc8O)C9)CC7)CC6)CC5)nc4c3F)c12` [Compound 46], on KRAS(G12D)/SOS1, the IC50 is less than 100 nM. Usually EC50 stands for the concentration giving half of the maximal effect. On to `CCNC(=O)c1nnc(-c2cc(C(C)C)c(O)cc2O)n1-c1ccc(CN2CCC(C(=O)N(C)[C@H]3CN4CCC[C@@]4(COc4nc(N5CC6CCC(C5)N6)c5cnc(-c6cc(O)cc7ccccc67)c(F)c5n4)C3)CC2)cc1` [Compound 47], for which the IC50 against KRAS(G12D)/SOS1 is less than 100 nM. Moreover, the EC50 in assay [1] fell in the range of 100 to 1000 nM. `CCNC(=O)c1nnc(-c2cc(C(C)C)c(O)cc2O)n1-c1ccc(CN2CCC(C(=O)N(C)[C@H]3CN4CCC[C@]4(COc4nc(N5CC6CCC(C5)N6)c5cnc(-c6cc(O)cc7ccccc67)c(F)c5n4)C3)CC2)cc1` [Compound 48]: in assay [1], the EC50 fell in the range of 100 to 1000 nM. `Cc1cccc2cccc(-c3ncc4c(N5CC6CCC(C5)N6)nc(OC[C@@H]5CC[C@H](CN6CCN(Cc7ccc8c(c7)CN(C(=O)c7cc(C(C)C)c(O)cc7O)C8)CC6)N5C)nc4c3F)c12` [Compound 71] showed a concentration for half-maximal inhibition (IC50) against KRAS(G12D)/SOS1 of 100 to 1000 nM. Also, the EC50 in assay [1] and in assay [2] was 100 to 1000 nM throughout.

For `CCNC(=O)c1nnc(-c2cc(C(C)C)c(O)cc2O)n1-c1ccc(CN2CCN(C[C@H]3CC[C@@H](COc4nc(N5CC6CCC(C5)N6)c5cnc(-c6cccc7cccc(C)c67)c(F)c5n4)N3C)CC2)cc1` [Compound 72], the IC50 against KRAS(G12D)/SOS1 was 100 to 1000 nM. In addition, the EC50 in assay [1] and in assay [2] was less than 100 nM in each case. In the case of `Cc1c(F)cccc1-c1ncc2c(N3CC4CCC(C3)N4)nc(OC[C@@H]3C[C@H](N4CCN(C(=O)C5CCN(Cc6ccc7c(c6)CN(C(=O)c6cc(C(C)C)c(O)cc6O)C7)CC5)CC4)CN3C)nc2c1F` [Compound 84], the EC50 in assay [1] and in assay [2] was 100 to 1000 nM throughout. In the case of `CC(C)c1cc(C(=O)N2Cc3ccc(CN4CCN(C[C@H]5C[C@@H](COc6nc(N7CC8CCC(C7)N8)c7cnc(-c8cc(O)cc9ccccc89)c(F)c7n6)N(C)C5)CC4)cc3C2)c(O)cc1O` [Compound 90], the EC50 in assay [1] and in assay [2] was 100 to 1000 nM throughout. With `CC(C)c1cc(-c2nnc(C(=O)NC(C)C(F)(F)F)n2-c2ccc(CN3CCN([C@H]4C[C@@H](COc5nc(N6CC7CCC(C6)N7)c6cnc(-c7ccccc7C(F)(F)F)c(F)c6n5)N(C)C4)CC3)cc2)c(O)cc1O` (stereo partly shown) [Compound 110], the EC50 in assay [1] and in assay [2] was 100 to 1000 nM throughout. For the molecule `CCc1cc(-c2nnc(C(=O)NCC(F)(F)F)n2-c2ccc(CN3CCN([C@H]4C[C@@H](COc5nc(N6CC7CCC(C6)N7)c6cnc(-c7ccccc7C(F)(F)F)c(F)c6n5)N(C)C4)CC3)cc2)c(O)cc1O` [Compound 111], the EC50 in assay [1] and in assay [2] was 100 to 1000 nM throughout. Turning to `CC(C)c1cc(C(=O)N2Cc3ccc(CN4CCC(C(=O)N5CCN(C[C@H]6C[C@@H](COc7nc(N8CC9CCC(C8)N9)c8cnc(-c9cc(O)cc%10ccccc9%10)c(F)c8n7)N(C)C6)CC5)CC4)cc3C2)c(O)cc1O` [Compound 112], the EC50 in assay [1] and in assay [2] was more than 1000 nM each time. As to `C#Cc1cccc2cc(O)cc(-c3ncc4c(N5CC6CCC(C5)N6)nc(OC[C@@H]5C[C@H](CN6CCN(Cc7ccc8c(c7)CN(C(=O)c7cc(C(C)C)c(O)cc7O)C8)CC6)CN5C)nc4c3F)c12` [Compound 113], the EC50 in assay [1] and in assay [2] was 100 to 1000 nM in each case. On to `C#Cc1cccc2cc(O)cc(-c3ncc4c(N5CC6CCC(C5)N6)nc(OC[C@@H]5C[C@H](CN6CCN(Cc7ccc(-n8c(C(=O)NCC)nnc8-c8cc(C(C)C)c(O)cc8O)cc7)CC6)CN5C)nc4c3F)c12` [Compound 114], for which the EC50 in assay [1] and in assay [2] was 100 to 1000 nM in each case. In the case of `C#Cc1cccc2cc(O)cc(-c3ncc4c(N5CC6CCC(C5)N6)nc(OC[C@@H]5C[C@H](CN6CCN(Cc7ccc(-n8c(C(=O)NC(C)C(F)(F)F)nnc8-c8cc(C(C)C)c(O)cc8O)cc7)CC6)CN5C)nc4c3F)c12` (stereo partly shown) [Compound 115], the EC50 in assay [1] and in assay [2] was 100 to 1000 nM each time. With `C#Cc1cccc2cc(O)cc(-c3ncc4c(N5CC6CCC(C5)N6)nc(OC[C@@H]5C[C@H](CN6CCN(Cc7ccc(-n8c(C(=O)NCC(F)(F)F)nnc8-c8cc(CC)c(O)cc8O)cc7)CC6)CN5C)nc4c3F)c12` [Compound 116], the 50% effective concentration (EC50) in assay [1] was 100 to 1000 nM; in assay [2], more than 1000 nM. For the molecule `C#Cc1c(F)ccc2cc(O)cc(-c3ncc4c(N5CC6CCC(C5)N6)nc(OCC5(CN6CCC(N7CCN(Cc8ccc9c(c8)CN(C(=O)c8cc(C(C)C)c(OC)cc8OC)C9)CC7)CC6)CC5)nc4c3F)c12` [Compound 196], the concentration for a half-maximal effect (EC50) in assay [1] was less than 100 nM.

For `C#Cc1c(F)ccc2cc(O)cc(-c3ncc4c(N5CC6CCC(C5)N6)nc(OC[C@H]5CCCN5Cc5ccc(-n6c(C(=O)NC(C)C(F)(F)F)nnc6-c6cc(C(C)C)c(O)cc6O)cc5)nc4c3F)c12` (stereo partly shown) [Compound 206], in assay [1], the EC50 lay within 100 to 1000 nM. On the same count and under the same terms, to `C#Cc1c(F)ccc2cc(O)cc(-c3ncc4c(N5CC6CNC(C6)C5)nc(OCC5(CN6CCC(N7CCN(Cc8ccc9c(c8)CN(C(=O)c8cc(C(C)C)c(O)cc8O)C9)CC7)CC6)CC5)nc4c3F)c12` (stereo not shown) [Compound 207] belongs 100 to 1000 nM. The same measure, in the same setting: the result for `C#Cc1c(F)ccc2cc(O)cc(-c3ncc4c(N5CC6CCC(C5)N6CC#N)nc(OCC5(CN6CCC(N7CCN(Cc8ccc9c(c8)CN(C(=O)c8cc(C(C)C)c(O)cc8O)C9)CC7)CC6)CC5)nc4c3F)c12` [Compound 208] reads less than 100 nM. Same read-out and setting: the result for `C#Cc1c(F)ccc2cc(O)cc(-c3ncc4c(N5CC6CCC(C5)N6)nc(OCC5(CN6CCC(N7CCN(Cc8cc9c(cc8F)CN(C(=O)c8cc(C(C)C)c(O)cc8O)C9)CC7)CC6)CC5)nc4c3F)c12` [Compound 209] reads less than 100 nM; that for `C#Cc1c(F)ccc2cc(O)cc(-c3nc(OC)c4c(N5CC6CCC(C5)N6)nc(OC5CN(CC6(F)CN(Cc7ccc8c(c7)CN(C(=O)c7cc(C(C)C)c(O)cc7O)C8)C6)C5)nc4c3F)c12` [Compound 210], 100 to 1000 nM; that for `C#Cc1c(F)ccc2cc(O)cc(-c3ncc4c(N5CC6CCC(C5)N6)nc(OCC5(CN6CCN(CC#Cc7cn(Cc8ncc(C)c(OC)c8C)c8nc(N)nc(Cl)c78)CC6)CC5)nc4c3F)c12` [Compound 211], less than 100 nM.

In the case of `C#Cc1c(F)ccc2cc(O)cc(-c3ncc4c(N5CC6CCC(C5)N6)nc(OCC5(CN6CC(C7CN(Cc8ccc9c(c8)CN(C(=O)c8cc(C(C)C)c(O)cc8O)C9)C7)C6)CC5)nc4c3F)c12` [Compound 213], the half-maximal effective concentration (EC50) in assay [1] was less than 100 nM.

For the molecule `C#Cc1cccc2cc(O)cc(-c3ncc4c(N5CC6CCC(C5)N6)nc(OCC5(CN6CCC(N7CCN(Cc8ccc9c(c8)CN(C(=O)c8cc(C(C)C)c(O)cc8O)C9)CC7)CC6)CC5)nc4c3F)c12` [Compound 214], the EC50 in assay [1] was less than 100 nM. On the same count and under the same terms, the result for `C#Cc1c(F)ccc2cc(O)cc(-c3ncc4c(N5CC6CCC(C5)N6)nc(OCC5(CN6CC(C7CCN(Cc8ccc9c(c8)CN(C(=O)c8cc(C(C)C)c(O)cc8O)C9)CC7)C6)CC5)nc4c3F)c12` [Compound 215] reads less than 100 nM; that for `C#Cc1c(F)ccc2cc(O)cc(-c3ncc4c(N5CC6CCC(C5)N6)nc(OCC5(CN6CCC(N7CCC(Oc8ccc9c(n8)CN(C(=O)c8cc(C(C)C)c(O)cc8O)C9)CC7)CC6)CC5)nc4c3F)c12` [Compound 216], less than 100 nM; that for `C#Cc1c(F)ccc2cc(O)cc(-c3ncc4c(N5CC6CCC(C5)N6)nc(OCC5(CN6CC(CN(C)CCOc7ccc8c(c7)CN(C(=O)c7cc(C(C)C)c(O)cc7O)C8)C6)CC5)nc4c3F)c12` [Compound 218], 100 to 1000 nM.

For the origin of these results see patent US20260070929A1, “METHODS AND COMPOSITIONS FOR MODULATING KRAS(G12D)” (Ranok Therapeutics (Hangzhou) Co. LTD., priority 2022, published 2026).
